≈ marks a conversion by molar mass, not a printed value.
Key:
[1] = Clearance in Sprague-Dawley rat at 0.5 mg/kg, iv measured for 8 hrs by LC-MS/MS analysis; format: ADME, organism-based; conditions: in vivo
[2] = Inhibition of human full length HPK1-T165E/S171E mutant expressed in baculovirus expression system assessed as inhibition of SLP76 phosphorylation using biotinylated SLP76 as substrate preincubated for 30 mins followed by incubation with substrate in presence of ATP and measured for 60 mins by HTRF assay
[3] = Apparent permeability of the compound across apical to basolateral side in dog MDCK1 cells at 10 uM by LC-MS/MS analysis; format: ADME, cell-based, Canis lupus familiaris; conditions: MDCK
[4] = Volume of distribution at steady state in Sprague-Dawley rat at 0.5 mg/kg, iv measured for 8 hrs by LC-MS/MS analysis; format: ADME, organism-based; conditions: in vivo, read-out: Vdss
[5] = Half life in Sprague-Dawley rat at 0.5 mg/kg, iv measured for 8 hrs by LC-MS/MS analysis; format: ADME, organism-based; conditions: in vivo
[6] = Volume of distribution at steady state in C57BL/6 mouse at 25 mg/kg, po or 1 mg/kg, iv measured for 24 hrs by LC-MS/MS analysis; format: ADME, organism-based; conditions: in vivo
[7] = Half life in C57BL/6 mouse at 25 mg/kg, po or 1 mg/kg, iv measured for 24 hrs by LC-MS/MS analysis; format: ADME, organism-based; conditions: in vivo
[8] = Oral bioavailability in Sprague-Dawley rat; format: ADME, organism-based; conditions: in vivo
[9] = Kinetic solubility of the compound in PBS at pH 7.4; format: physicochemical; conditions: read-out: Kinetic_solubility
[10] = target: T1, Mitogen-activated protein kinase kinase kinase kinase 1 (Homo sapiens, UniProt Q92918); assay: Inhibition of HPK1 in human Jurkat cells assessed as inhibition of anti-CD3/anti-CD28-induced SLP76 phosporylation at Ser376 residue incubated for 30 mins by ELISA; format: cell-based
T1 sequence (Q92918 whole entry): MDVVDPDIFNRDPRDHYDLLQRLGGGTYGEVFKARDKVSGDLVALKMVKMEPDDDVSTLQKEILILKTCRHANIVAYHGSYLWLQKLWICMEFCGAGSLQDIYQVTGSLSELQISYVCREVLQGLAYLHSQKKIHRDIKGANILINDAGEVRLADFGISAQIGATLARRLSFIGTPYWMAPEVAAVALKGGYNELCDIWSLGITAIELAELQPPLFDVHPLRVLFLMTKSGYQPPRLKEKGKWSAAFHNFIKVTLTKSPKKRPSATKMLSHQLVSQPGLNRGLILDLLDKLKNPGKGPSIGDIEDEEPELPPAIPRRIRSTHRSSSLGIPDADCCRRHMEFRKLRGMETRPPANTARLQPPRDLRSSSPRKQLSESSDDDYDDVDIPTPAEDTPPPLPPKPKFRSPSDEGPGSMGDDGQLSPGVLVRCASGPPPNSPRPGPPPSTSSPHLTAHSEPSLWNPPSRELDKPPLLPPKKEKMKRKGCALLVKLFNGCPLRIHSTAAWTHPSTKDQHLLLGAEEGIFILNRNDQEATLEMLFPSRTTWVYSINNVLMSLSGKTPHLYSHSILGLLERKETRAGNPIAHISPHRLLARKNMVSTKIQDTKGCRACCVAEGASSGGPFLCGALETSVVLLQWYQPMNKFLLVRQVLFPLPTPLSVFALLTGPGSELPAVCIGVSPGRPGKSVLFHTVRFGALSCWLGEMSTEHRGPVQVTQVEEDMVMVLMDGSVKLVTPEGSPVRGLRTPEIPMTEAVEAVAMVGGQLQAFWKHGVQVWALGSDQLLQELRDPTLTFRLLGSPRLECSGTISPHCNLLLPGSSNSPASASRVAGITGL

[11] = target: T1, Mitogen-activated protein kinase kinase kinase kinase 1; assay: Inhibition of HPK1 in primary human Pan T cells assessed as increase in IL-2 secretion pretreated for 30 mins followed by incubation with anti-CD3/anti-CD28 and measured after 4 hrs by MSD assay; format: cell-based, T cell
[12] = Oral bioavailability in C57BL/6 mouse at 25 mg/kg measured for 24 hrs by LC-MS/MS analysis; format: ADME, organism-based; conditions: C57BL/6, mouse, in vivo

SMILES	clearance [1] [mL/min/kg]	Ki [2] [nM]	Papp A→B at 10 µM [3] [×10⁻⁶ cm/s]	Vd [4] [L/kg]	half-life [5] [h]	Vdss [6] [L/kg]	half-life [7] [h]	bioavailability [8] [%]	solubility kinetic [9] [µM]	IC50 [10] [nM]	EC50 [11] [nM]	bioavailability [12] [%]
Cc1c(N)cncc1-c1cc2cc(NC(=O)OC3CCOCC3)ncc2c(N)c1F	38	0.498	15	3.2	1.2	1.7	1.3	94	13 (≈ 5.35 µg/mL)			
Cc1c(-c2cc3cc(NC(=O)OC4CCOCC4)ncc3c(N)c2F)cnc2c1NCCO2	17	< 0.019	18	1.5	1.5	1.3	1.1	16	1.5 (≈ 0.68 µg/mL)	97	39	31

Reference: ChEMBL document CHEMBL6127064, “Discovery of GNE-6893, a Potent, Selective, Orally Bioavailable Small Molecule Inhibitor of HPK1” (ACS Med Chem Lett, 2024)
